Read-outs that look alike come from different tables or passages of the source.
What was measured:
[1] = molecular target: T1, PPAR-γ (Homo sapiens, UniProt P37231); test: cell-based PPAR transactivation (luciferase) assay, PPAR-γ; conditions: for activation at 10 µM: 24 h, compounds 10 µM, relative to maximum activation with pioglitazone (10 µM), PPAR-Luc in CV-1 cells, read-out: % max PPAR-γ
T1 construct: host or cells: CV-1
T1 sequence (P37231 1-505): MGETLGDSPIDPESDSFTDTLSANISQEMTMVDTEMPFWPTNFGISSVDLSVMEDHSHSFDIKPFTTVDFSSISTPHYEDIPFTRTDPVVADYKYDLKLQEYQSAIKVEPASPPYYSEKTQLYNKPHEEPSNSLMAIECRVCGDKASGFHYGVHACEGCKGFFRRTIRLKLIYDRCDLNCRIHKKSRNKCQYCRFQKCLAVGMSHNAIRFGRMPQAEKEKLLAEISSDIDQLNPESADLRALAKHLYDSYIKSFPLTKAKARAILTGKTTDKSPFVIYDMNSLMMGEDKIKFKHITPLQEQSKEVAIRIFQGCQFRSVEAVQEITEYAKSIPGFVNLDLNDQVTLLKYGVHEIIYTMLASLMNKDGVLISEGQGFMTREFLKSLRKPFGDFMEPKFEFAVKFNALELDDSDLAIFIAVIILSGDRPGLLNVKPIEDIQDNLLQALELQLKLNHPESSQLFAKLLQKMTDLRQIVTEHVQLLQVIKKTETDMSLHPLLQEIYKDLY
Procedure: The PPAR activities of the synthesized dichloroanilide-linked indole analogs were assessed using a standard cell-based transactivation assay in CV-1 cells. GW7647 [42], pioglitazone, and GW0742 [43] were used as positive controls for PPAR-α, -γ, and -δ, respectively. These three positive controls presented the maximum activation for each PPAR subtype. The activity of the compounds was presented as the activation percentage (%) relative to the maximum values of the positive controls at the indicated concentrations.
Transient transfection and luciferase assay was carried out. CV-1 cells were seeded in 48-well plates at a density of 1.5 × 10^5 cells/well in Dulbecco’s modified Eagle’s medium (DMEM) with containing 10% fetal bovine serum (FBS). The cells were transiently transfected with plasmid mixtures containing PPAR-α/γ expression vector and tk-PPRE-luciferase (Luc) vector for 6 h and then treated with the samples for 24 h. HEK293t cells were seeded in a 60-mm dish at a density of 1.5 × 10^6 cells/dish. After transfection with the plasmid mixtures containing PPAR-δ expression vector and Luc vector for 6 h, the cells were transferred to a 96-well plate and treated with the samples. To normalize the transfection efficiency, a β-galactosidase plasmid was cotransfected. The luciferase activity in the cell lysates was measured using a luciferase assay system (Promega Corp., Madison, WI, USA), and the β-galactosidase activity was determined by measuring the absorbance at 410 nm using an ELISA plate reader. The data were expressed as the relative luciferase activity divided by the β-galactosidase activity. All constructs were kindly gifted by Dr. Ronald M. Evans at The Salk Institute (La Jolla, CA, USA).

[2] = molecular target: T2, PPAR-γ (Homo sapiens, UniProt P37231); test: TR-FRET LanthaScreen PPAR coactivator recruit assay, PPAR-γ (TRAP220/DRIP2 peptide); format: biochemical; conditions: for EC50: TR-FRET coactivator recruit assay
T2 construct: purchased Invitrogen / Thermo Fisher Scientific (assay service)
T2 sequence (P37231 238-503 limits assumed): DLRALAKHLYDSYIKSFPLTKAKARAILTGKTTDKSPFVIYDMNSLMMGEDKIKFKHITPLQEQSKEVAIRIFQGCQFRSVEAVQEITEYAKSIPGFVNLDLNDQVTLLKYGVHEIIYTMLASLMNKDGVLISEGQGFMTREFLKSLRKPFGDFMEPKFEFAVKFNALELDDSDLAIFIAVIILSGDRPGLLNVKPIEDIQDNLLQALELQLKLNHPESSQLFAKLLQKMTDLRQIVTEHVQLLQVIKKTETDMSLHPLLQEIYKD
Source text: Binding of agonist to the PPAR LBD causes a conformational change around helix 12 in the LBD, resulting in higher affinity for the coactivator peptide. When the terbium label on the anti-GST antibody complexed with PPAR is excited at 340 nm, energy is transferred to the fluorescein label on the coactivator peptide and detected as emission at 520 nm. […] Based on the biology of the PPAR-coactivator peptide interaction, this ligand EC50 is a composite value representing the amount of ligand required to bind to receptor, effect a conformational change, and recruit coactivator peptide. Potency of compounds show similar order to their activity (Table 3). […] Ligands such as TZDs show little or no binding to PPAR-δ. Compound 11 and 15 have ortho or meta substituted benzoic acid as an acidic head group. Their acidic head groups might seem to be too large to fit within the narrow PPAR-δ pocket. In contrast, the compound 1 and 2 contains an acetic acid head group that complements the narrow PPAR-δ ligand binding. […] The potency and selectivity of compound 11 could be explained by harmonization of steric effect of acidic head group, length and rigidity of hydrophobic tail, and properly tuned aromatic linker system.
EC50 of compounds were determined by recruitment of transcriptional coactivators using the TR-FRET based Lanthascreen coactivator assays (Invitrogen, Carlsbad, CA, USA). Which was serviced by Thermo Fisher Scientific (Medicon, WI, USA) according to the LanthaScreen TR-FRET coregulator protocol and assay conditions. Coregulator peptide PGC1a, TRAP220/DRIP2 and C33 was used for the coactivator recruit assay of PPAR-α, -γ, and -δ, respectively.

Structure (SMILES)	activation at 10 µM [1]	PPAR-γ activity relative to that of pioglitazone ([1]; cell-based reporter assay)	EC50 ([2]; read-out: EC50 PPAR-γ)	selectivity for PPAR-γ to PPAR-α ([2]; from coactivator recruit EC50)	selectivity for PPAR-γ to PPAR-δ ([2]; from coactivator recruit EC50)	EC50 ([2]; read-out: EC50 to PPAR-γ)
O=C(COc1ccc2c(ccn2Cc2ccccc2C(=O)O)c1)Nc1ccc(Cl)cc1Cl [Compound 12, 2-((5-(2-((2,4-Dichlorophenyl)amino)-2-oxoethoxy)-1H-indol-1-yl)methyl)benzoic acid]	189.2 ± 1.67%	approximately 2 fold	1.96 nM	1,970 fold	16,600 fold	
O=C(COc1ccc2ccn(Cc3ccccc3C(=O)O)c2c1)Nc1ccc(Cl)cc1Cl [Compound 13, 2-((6-(2-((2,4-Dichlorophenyl)amino)-2-oxoethoxy)-1H-indol-1-yl)methyl)benzoic acid]	74.5 ± 0.94%		571 nM			
O=C(COc1ccc2ccn(Cc3cccc(C(=O)O)c3)c2c1)Nc1ccc(Cl)cc1Cl [Compound 15, 3-((6-(2-((2,4-Dichlorophenyl)amino)-2-oxoethoxy)-1H-indol-1-yl)methyl)benzoic acid]	126.5 ± 0.92%		32.6 nM			32.3 nM
O=C(COc1ccc2c(c1)c(Cc1ccccc1)cn2Cc1ccccc1C(=O)O)Nc1ccc(Cl)cc1Cl [Compound 18, 2-((3-Benzyl-5-(2-((2,4-dichlorophenyl)amino)-2-oxoethoxy)-1H-indol-1-yl)methyl)benzoic acid]	93.2 ± 0.59%		> 11100 nM			
